Measured values from patent publication US20260144769A1, “4-PHENYLBUTYRATE RESTORED GABA UPTAKE AND REDUCED SEIZURES IN SLC6A1 VARIANT-MEDIATED DISORDERS” (Vanderbilt University, priority 2022, published 2026).

What was measured:
[1] = target: T1, wildtype GAT-1 (Rattus norvegicus, UniProt P23978); experiment: 3H GABA uptake, HEK293T cells expressing wildtype GAT-1^YFP; type: cell-based; settings: for GABA uptake activity vs. wildtype 0: HEK293T, wildtype GAT-1^YFP, normalized to DMSO treated
T1 construct: The coding region of rGAT-1 was inserted into pEYFP-C1 (Clontech, Palo Alto, CA); expressed in transfected cells; host or cells: HEK293T cells (A1); astrocytes from corrected human iPSCs (A21)
Description: GABA uptake activity was measured by the high-throughput 3H radio-labeling GABA uptake on a liquid scintillator with QuantaSmart. […] HEK293T cells were transfected with the wildtype or the mutant GAT-1^YFP cDNAs alone for 48 hr. […] HEK293T cells were transfected with the wildtype GAT-1^YFP alone or in mixture of the wildtype or the mutant cDNAs for 48 hr. In the mixed condition, the ratio of the wildtype GAT-1 with pcDNA or the mutant cDNAs are 1:1 with the total cDNA amount of 0.5 μg. […] Both wt and the mutant were normalized to its own DMSO treated conditions. 966 stands for the wildtype treated with CI-966 (50 μM) while 711 stands for NNC-711 (35 μM). (N=4-7 different transfections. In FIG. 4A and FIG. 4B, *P<0.05, **P<0.01, ***p<0.001 vs. wt 0. In FIG. C and FIG. 4D, *P<0.05, **P<0.01, ***p<0.001 vs. its own DMSO treated. In FIG. 4C, ns stands for no significance. One-way analysis of variance (ANOVA) and Newman-Keuls test. Values were expressed as mean±S.E.M.
The plasmid cDNA encoding enhanced yellow fluorescent protein (EYFP)-tagged rat GAT-1 has been previously described. The coding region of rGAT-1 was inserted into pEYFP-C1 (Clontech, Palo Alto, CA). QuikChange Site-directed Mutagenesis kit was utilized to introduce the GAT-1 variants into a wildtype GAT-1 plasmid. The product was then amplified via polymerase chain reaction, transformed using DH5a competent cells, and plated. A clone was chosen and grown overnight. All the GAT-1 variants were confirmed by DNA sequencing. Both the wildtype and the variant cDNAs were prepared with Qiagen Maxiprep kit.
Human embryonic kidney cells were cultured as monolayers in 100 mm^2 dishes. Cells were cultured in Dulbecco's Modified Eagle's Medium supplemented with 10% FBS and 1% penicillin/streptomycin in 37° C. in 5% CO2/95% air. Cells were maintained in culture medium until appropriate confluency for experimentation.
Briefly, cells were cultured in […] dishes for 3 days before the GABA uptake experiment in DMEM with 10% fetal bovine serum and 1% penicillin/streptomycin. The cells were then transfected with equal amounts of the wildtype or the mutant GAT-1 cDNAs (1 μg) for each condition at 24 hrs or 48 hrs after plating. GABA uptake assay was carried out 48 hrs after transfection. The cells were incubated with preincubation solution for 15 min and then incubated with preincubation solution containing 1 μci/mL 3H GABA and 10 μM unlabeled GABA for 30 min at room temperature. After washing, the cells were lysed with 0.25 N NaOH for 1 hr. Glacial acetic acid was added, and lysates were then determined on a liquid scintillator with QuantaSmart. The flux of GABA (pmol/μg/min) was averaged with at least triplets for each condition at each transfection. The average counting was taken as n=1. […]

[2] = system: GAT-1; experiment: GAT-1 protein expression (SDS-PAGE, anti-GAT-1 blot), patient human astrocytes; type: cell-based; settings: PBA 2 mM
Description: FIGS. 6A-B show human patient corrected (isogenic control, Corr) or uncorrected patient (Pat) astrocytes at day 30-35 after differentiation from iPSCs were co-transfected with the endoplasmic reticulum (ER) marker ER^CFP in combination with the wildtype or the mutant GAT-1^YFP cDNAs (0.5 μg: 0.5 μg per a 35 mm^2 dish) for 48 hrs before confocal microscopy analysis. Confocal images were acquired in live astrocytes under 63× objective with zoom under 2.5×. […] FIG. 6B represents the ER overlapping signal of GAT-1^YFP analyzed by Metamorph. […] Membranes were blotted with a rabbit polyclonal anti-GAT-1 antibody (FIG. 6C). The lysates of Chinese hamster ovary (CHO) cells were used as control. […] Values were expressed as mean±S.E.M.). […]
Data were expressed as mean±SEM. Proteins were quantified by Odyssey software and data were normalized to loading controls and then to the wildtype subunit protein, which was arbitrarily taken as 1 in each experiment. Fluorescence intensities from confocal microscopy experiments were determined using MetaMorph imaging software, and the measurements were carried out in ImageJ. […]

In the case of O=C(O)CCCc1ccccc1 [PBA, 4-phenylbutyric acid], the “GABA uptake activity vs. wildtype 0” value ([1]; PBA 4 mM as printed) is reported as 1.24±0.09, the “GABA uptake activity vs. wildtype 0” value ([1]; PBA for 24 hrs) is reported as 1.24±0.05 and the “GABA uptake activity, concentration and time dependence” value ([1]; PBA 0 to 4 mM, 0 to 48 hrs) is reported as “concentration and time dependently increased”. For the same molecule, the cell loss ([1]; cells treated with PBA at 4 mM and/or 48 hrs) was “occasional cell loss”, the “GAT-1 expression normalized to its own genotype DMSO treated” value ([2]; 24 hrs) was 1.39±0.046 and the “total GAT-1 protein of the patient astrocytes as % of the corrected” value ([2]; 24 hrs (52.2% untreated)) was 73.2%.
